Measured values: patent US20030104507A1, “Method for detection of ATP” (priority 2001, published 2003)

System: Jurkat cells
Test: Effect of NaF on Jurkat cell luminescence
Type: cell-based
Description: In some cells, such as lymphoid cells (e.g., Jurkat), an increase in luminescence over time in the presence of the reagent composition solution is observed. While the underlying mechanism of this increase in luminescence is not known, it is postulated that it results from the functioning of ATP-generating enzymes in this cell. The activity of such enzymes, if left unchecked, will result in an over-estimation of ATP in a sample at the time of the assay. This experiment was designed to test the effects of sodium fluoride on luminescence when using lymphoid cells.
Jurkat cells (ATCC, CRL-1990) were grown in 5% CO2/95% air, 100% humidity at 37° C. and maintained in RPMI media (Sigma, R-8005) containing 10% FBS (Hyclone #SH30070), 1X non-essential amino acids (Hyclone SH30238) and 1 mM sodium pyruvate (Hyclone #SH30239). Cells were plated at 0, 12500, 25000, and 50000 cells/well in 100 μl of media in a 96-well microtiter luminometer plate. Quadruplicate replicates were prepared. To each of these wells was added reagent composition (reagent composition=40 mM Citrate buffer (pH 6.0), 110 mM MES buffer (pH 6.0), 0.2 mM EDTA, 0.2% Gelatin, 100 μg/ml Luciferase (LucPpe2m146, diluted from 37.8 mg/ml stock solution), 100 μM luciferin, 300 mM NaCl, 20 mM MgSO4, 0.05% Mazu DF-204, 0.6% DTAB). In addition, all but the “no KPO4” control sample contained 60 mM KPO4 buffer (pH 6.0). Various concentrations of NaF were then added to the above solution to final concentrations of 0, 1.0, 2.0, 4.0, 10.0 mM; one condition had 10.0 mM NaF but without KPO4.
Total reaction volume per well was 200 μl, consisting of 100 μl cells plus media and 100 μl reagent composition containing KPO4 and/or NaF. The light output was taken at various times on a Dynex microtiter plate luminometer at a 0.5 second read time. The resulting average rlus from quadruplicate wells and calculated signal stabilities as measured by their half-life values are reported in Table S.

[F-].[Na+] [NaF, sodium fluoride]
Average rlu (1.0 mM NaF, 12500 cells/well, 0 min): 358.61 rlu
Average rlu (1.0 mM NaF, 12500 cells/well, 30 min): 341.31 rlu
Average rlu (1.0 mM NaF, 12500 cells/well, 85 min): 331.08 rlu
Average rlu (1.0 mM NaF, 12500 cells/well, 130 min): 323.54 rlu
Average rlu (1.0 mM NaF, 12500 cells/well, 220 min): 271.89 rlu
Average rlu (1.0 mM NaF, 12500 cells/well, 255 min): 257.06 rlu
Average rlu (1.0 mM NaF, 12500 cells/well, 285 min): 247.61 rlu
Average rlu (1.0 mM NaF, 25000 cells/well, 0 min): 691.68 rlu
Average rlu (1.0 mM NaF, 25000 cells/well, 30 min): 640.53 rlu
Average rlu (1.0 mM NaF, 25000 cells/well, 85 min): 611.45 rlu
Average rlu (1.0 mM NaF, 25000 cells/well, 130 min): 596.87 rlu
Average rlu (1.0 mM NaF, 25000 cells/well, 220 min): 495.89 rlu
Average rlu (1.0 mM NaF, 25000 cells/well, 255 min): 463.32 rlu
Average rlu (1.0 mM NaF, 25000 cells/well, 285 min): 446.32 rlu
Average rlu (1.0 mM NaF, 50000 cells/well, 0 min): 1380.16 rlu
Average rlu (1.0 mM NaF, 50000 cells/well, 30 min): 1268.49 rlu
Average rlu (1.0 mM NaF, 50000 cells/well, 85 min): 1185.73 rlu
Average rlu (1.0 mM NaF, 50000 cells/well, 130 min): 1147.33 rlu
Average rlu (1.0 mM NaF, 50000 cells/well, 220 min): 936.82 rlu
Average rlu (1.0 mM NaF, 50000 cells/well, 255 min): 862.31 rlu
Average rlu (1.0 mM NaF, 50000 cells/well, 285 min): 832.15 rlu
Average rlu (2.0 mM NaF, 12500 cells/well, 0 min): 348.16 rlu
Average rlu (2.0 mM NaF, 12500 cells/well, 30 min): 333.48 rlu
Average rlu (2.0 mM NaF, 12500 cells/well, 85 min): 323.75 rlu
Average rlu (2.0 mM NaF, 12500 cells/well, 130 min): 317.48 rlu
Average rlu (2.0 mM NaF, 12500 cells/well, 220 min): 258.43 rlu
Average rlu (2.0 mM NaF, 12500 cells/well, 255 min): 251.90 rlu
Average rlu (2.0 mM NaF, 12500 cells/well, 285 min): 239.40 rlu
Average rlu (2.0 mM NaF, 25000 cells/well, 0 min): 679.02 rlu
Average rlu (2.0 mM NaF, 25000 cells/well, 30 min): 631.69 rlu
Average rlu (2.0 mM NaF, 25000 cells/well, 85 min): 603.07 rlu
Average rlu (2.0 mM NaF, 25000 cells/well, 130 min): 589.08 rlu
Average rlu (2.0 mM NaF, 25000 cells/well, 220 min): 472.37 rlu
Average rlu (2.0 mM NaF, 25000 cells/well, 255 min): 455.25 rlu
Average rlu (2.0 mM NaF, 25000 cells/well, 285 min): 433.54 rlu
Average rlu (2.0 mM NaF, 50000 cells/well, 0 min): 1340.22 rlu
Average rlu (2.0 mM NaF, 50000 cells/well, 30 min): 1239.83 rlu
Average rlu (2.0 mM NaF, 50000 cells/well, 85 min): 1156.03 rlu
Average rlu (2.0 mM NaF, 50000 cells/well, 130 min): 1111.04 rlu
Average rlu (2.0 mM NaF, 50000 cells/well, 220 min): 873.26 rlu
Average rlu (2.0 mM NaF, 50000 cells/well, 255 min): 829.87 rlu
Average rlu (2.0 mM NaF, 50000 cells/well, 285 min): 781.80 rlu
Average rlu (4.0 mM NaF, 12500 cells/well, 0 min): 367.69 rlu
Average rlu (4.0 mM NaF, 12500 cells/well, 30 min): 346.05 rlu
Average rlu (4.0 mM NaF, 12500 cells/well, 85 min): 335.27 rlu
Average rlu (4.0 mM NaF, 12500 cells/well, 130 min): 331.07 rlu
Average rlu (4.0 mM NaF, 12500 cells/well, 220 min): 275.13 rlu
Average rlu (4.0 mM NaF, 12500 cells/well, 255 min): 259.58 rlu
Average rlu (4.0 mM NaF, 12500 cells/well, 285 min): 251.79 rlu
Average rlu (4.0 mM NaF, 25000 cells/well, 0 min): 691.41 rlu
Average rlu (4.0 mM NaF, 25000 cells/well, 30 min): 634.08 rlu
Average rlu (4.0 mM NaF, 25000 cells/well, 85 min): 604.37 rlu
Average rlu (4.0 mM NaF, 25000 cells/well, 130 min): 587.41 rlu
Average rlu (4.0 mM NaF, 25000 cells/well, 220 min): 476.36 rlu
Average rlu (4.0 mM NaF, 25000 cells/well, 255 min): 453.66 rlu
Average rlu (4.0 mM NaF, 25000 cells/well, 285 min): 436.38 rlu
Average rlu (4.0 mM NaF, 50000 cells/well, 0 min): 1378.13 rlu
Average rlu (4.0 mM NaF, 50000 cells/well, 30 min): 1277.41 rlu
Average rlu (4.0 mM NaF, 50000 cells/well, 85 min): 1195.56 rlu
Average rlu (4.0 mM NaF, 50000 cells/well, 130 min): 1139.99 rlu
Average rlu (4.0 mM NaF, 50000 cells/well, 220 min): 883.49 rlu
Average rlu (4.0 mM NaF, 50000 cells/well, 255 min): 853.43 rlu
Average rlu (4.0 mM NaF, 50000 cells/well, 285 min): 813.31 rlu
Average rlu (10.0 mM NaF, 12500 cells/well, 0 min): 364.79 rlu
Average rlu (10.0 mM NaF, 12500 cells/well, 30 min): 343.44 rlu
Average rlu (10.0 mM NaF, 12500 cells/well, 85 min): 331.48 rlu
Average rlu (10.0 mM NaF, 12500 cells/well, 130 min): 326.32 rlu
Average rlu (10.0 mM NaF, 12500 cells/well, 220 min): 271.64 rlu
Average rlu (10.0 mM NaF, 12500 cells/well, 255 min): 256.88 rlu
Average rlu (10.0 mM NaF, 12500 cells/well, 285 min): 248.30 rlu
Average rlu (10.0 mM NaF, 25000 cells/well, 0 min): 753.29 rlu
Average rlu (10.0 mM NaF, 25000 cells/well, 30 min): 677.94 rlu
Average rlu (10.0 mM NaF, 25000 cells/well, 85 min): 635.67 rlu
Average rlu (10.0 mM NaF, 25000 cells/well, 130 min): 617.77 rlu
Average rlu (10.0 mM NaF, 25000 cells/well, 220 min): 496.08 rlu
Average rlu (10.0 mM NaF, 25000 cells/well, 255 min): 471.66 rlu
Average rlu (10.0 mM NaF, 25000 cells/well, 285 min): 450.76 rlu
Average rlu (10.0 mM NaF, 50000 cells/well, 0 min): 1442.08 rlu
Average rlu (10.0 mM NaF, 50000 cells/well, 30 min): 1324.67 rlu
Average rlu (10.0 mM NaF, 50000 cells/well, 85 min): 1235.80 rlu
Average rlu (10.0 mM NaF, 50000 cells/well, 130 min): 1181.84 rlu
Average rlu (10.0 mM NaF, 50000 cells/well, 220 min): 903.44 rlu
Average rlu (10.0 mM NaF, 50000 cells/well, 255 min): 870.95 rlu
Average rlu (10.0 mM NaF, 50000 cells/well, 285 min): 826.48 rlu
Average rlu (10.0 mM NaF, without KPO4, 12500 cells/well, 0 min): 409.57 rlu
Average rlu (10.0 mM NaF, without KPO4, 12500 cells/well, 30 min): 400.10 rlu
Average rlu (10.0 mM NaF, without KPO4, 12500 cells/well, 85 min): 384.84 rlu
Average rlu (10.0 mM NaF, without KPO4, 12500 cells/well, 130 min): 371.42 rlu
Average rlu (10.0 mM NaF, without KPO4, 12500 cells/well, 220 min): 294.12 rlu
Average rlu (10.0 mM NaF, without KPO4, 12500 cells/well, 255 min): 283.01 rlu
Average rlu (10.0 mM NaF, without KPO4, 12500 cells/well, 285 min): 267.78 rlu
Average rlu (10.0 mM NaF, without KPO4, 25000 cells/well, 0 min): 806.87 rlu
Average rlu (10.0 mM NaF, without KPO4, 25000 cells/well, 30 min): 785.16 rlu
Average rlu (10.0 mM NaF, without KPO4, 25000 cells/well, 85 min): 734.44 rlu
Average rlu (10.0 mM NaF, without KPO4, 25000 cells/well, 130 min): 692.57 rlu
Average rlu (10.0 mM NaF, without KPO4, 25000 cells/well, 220 min): 516.69 rlu
Average rlu (10.0 mM NaF, without KPO4, 25000 cells/well, 255 min): 498.99 rlu
Average rlu (10.0 mM NaF, without KPO4, 25000 cells/well, 285 min): 468.90 rlu
Average rlu (10.0 mM NaF, without KPO4, 50000 cells/well, 0 min): 1514.80 rlu
Average rlu (10.0 mM NaF, without KPO4, 50000 cells/well, 30 min): 1449.30 rlu
effect on the luminescence increase seen with Jurkat cells (NaF added to reagent composition): can inhibit the luminescence increase
